Consider 22 molecules from US8232407B2, “Nitrogenous heterocyclic compounds with insecticidal activity, and the preparation and use thereof” (East China University of Science and Technology, priority 2008, dated 2012).

Type in all cases: in vivo
Series [1] has as its system Aphis craccivoral. In words: Insecticidal activities to aphids, immersion method. The note with it: for Aphis craccivoral Mortality (%) 500 ppm: in vivo. In outline: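 Wingless adult aphids feeding on bean sprouts were dipped 5 s in 500 ppm compound (DMF stock diluted in 0.2 mL/L aqueous Triton X-100), blotted and held at 23° C. Dead counted at 24 h, three replicates; mortality corrected against Triton-only controls.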

Series [2] concerns Nilaparvata lugens. In words: Insecticidal activities to plant hopper, spraying method. The following applies: for Nilaparvata lugens Mortality (%) 500 ppm: in vivo. In outline:
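Nilaparvata lugens, 10 insects per tumbler, sprayed with 2 ml compound in acetone at 0.79-500 ppm, three replicates, aqueous acetone control. Dead insects counted after 24 h; mortality corrected against control survival.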

The subject of series [3] is Plutella xylostella. The series is described as follows: Insecticidal activities to diamondback moth, feeding dipped leaves. The note with it: for Plutella xylostella Mortality (%) 500 ppm: in vivo. On the procedure: (§1) Mortality (%)=(the number of the survival aphis in control group−the number of the survival aphis in the treatment group)/the number of the survival aphis in control group×100%
(4): Insecticidal Activities to Diamondback Moth
Diamondback moth (Plutella xylostella) was tested by the way of feeding dippedleaves. Fresh cabbage leaves were immersed in above mentioned solution for 3 seconds, dried at room temperature, and fed to the tested insects. Each treatment was tested with 10 insects and repeated for 3 tumblers (3 times), while water was used as control. The number of killed insects was counted after 24 hours to calculate the mortality according to the above mentioned formula.

In series [4] the test system is Pseudaletia separate Walker. The series is described as follows: Insecticidal activities to armyworm, leaf dipping and feeding. The following applies: for Pseudaletia separate Walker Mortality (%) 500 ppm: in vivo. As to the method:
as §1
(3): Insecticidal Activities to Armyworm
Armyworm (Pseudaletia separate Walker) was tested by the way of leaf dipping and feeding. The test compound was exactly formulated with acetone into solutions having concentrations of 500, 250, 100, 50, 25, 12.5, 6.25, 3.13 and 1.57 ppm, respectively. Aqueous acetone solution was used as control. Fresh maize leaves were immersed in the solution for 3 seconds, dried at room temperature, and fed to the tested insects. Each treatment was tested with 10 insects and repeated for 3 tumblers (3 times). The number of killed insects was counted after 24 hours to calculate the mortality according to the above mentioned formula.

On to `O=[N+]([O-])C(=Cc1cc(Cl)co1)C1=NCCN1Cc1ccc(Cl)nc1` [Compound 6], for which the “Aphis craccivoral Mortality (%) 500 ppm” value in series [1] was 100%. In addition, in series [2], the “Nilaparvata lugens Mortality (%) 500 ppm” value turned out to be 100%. Besides, the “Plutella xylostella Mortality (%) 500 ppm” value in series [3] worked out at 100%. Moreover, the “Pseudaletia separate Walker Mortality (%) 500 ppm” value in series [4] stood at 100%.

In the case of `CC(=C(C1=NCCN1C(C)c1ccc(Cl)nc1)[N+](=O)[O-])c1ccoc1` (racemic) [Compound 134], the “Aphis craccivoral Mortality (%) 500 ppm” value in series [1] is given as 38%. The “Nilaparvata lugens Mortality (%) 500 ppm” value in series [2] came to 51%. Moreover, the “Plutella xylostella Mortality (%) 500 ppm” value in series [3] turned out to be 46%. Besides, the “Pseudaletia separate Walker Mortality (%) 500 ppm” value in series [4] is 52%.

On to `O=[N+]([O-])C(=Cc1ccc([N+](=O)[O-])s1)C1=NCCN1Cc1ccc(Cl)nc1` [Compound 18], for which the “Aphis craccivoral Mortality (%) 500 ppm” value in series [1] is 100%. Also, in series [2], the “Nilaparvata lugens Mortality (%) 500 ppm” value came to 100%. For the same molecule, the “Plutella xylostella Mortality (%) 500 ppm” value in series [3] was found to be 100%. In series [4], the “Pseudaletia separate Walker Mortality (%) 500 ppm” value was 100%.

`C[N+]1=C(C(=Cc2ccc[nH]2)[N+](=O)[O-])N(Cc2ccc(Cl)nc2)CC1.[Cl-]` [Compound 274]: the “Aphis craccivoral Mortality (%) 500 ppm” value in series [1] stood at 100%. Further, the “Nilaparvata lugens Mortality (%) 500 ppm” value in series [2] was found to be 100%. Also, in series [3], the “Plutella xylostella Mortality (%) 500 ppm” value was 100%. In addition, the “Pseudaletia separate Walker Mortality (%) 500 ppm” value in series [4] is 100%.

For the molecule `O=[N+]([O-])C(=Cc1oc(Cl)cc1Cl)C1=NCCN1Cc1ccccc1` [Compound 109], the “Aphis craccivoral Mortality (%) 500 ppm” value in series [1] stood at 91%. Also, the “Nilaparvata lugens Mortality (%) 500 ppm” value in series [2] came out at 100%. For the same molecule, the “Plutella xylostella Mortality (%) 500 ppm” value in series [3] was found to be 56%. For the same molecule, the “Pseudaletia separate Walker Mortality (%) 500 ppm” value in series [4] was determined as 60%.

In the case of `Cc1ccc(C=C(C2=NCCN2Cc2ccc(Cl)nc2)[N+](=O)[O-])s1` [Compound 27], the “Aphis craccivoral Mortality (%) 500 ppm” value in series [1] is recorded as 100%. Moreover, the “Nilaparvata lugens Mortality (%) 500 ppm” value in series [2] is recorded as 100%. Further, the “Plutella xylostella Mortality (%) 500 ppm” value in series [3] was determined as 100%. In series [4], the “Pseudaletia separate Walker Mortality (%) 500 ppm” value stood at 100%.

Consider `O=[N+]([O-])C(=Cc1ccoc1)C1=NCCN1Cc1cnc(Cl)s1` [Compound 69], for which, in series [1], the “Aphis craccivoral Mortality (%) 500 ppm” value was 100%. Also, the “Nilaparvata lugens Mortality (%) 500 ppm” value in series [2] is recorded as 100%. The “Plutella xylostella Mortality (%) 500 ppm” value in series [3] turned out to be 100%. The “Pseudaletia separate Walker Mortality (%) 500 ppm” value in series [4] is on record as 100%.

In the case of `CC[N+]1=C(C(=Cc2cccs2)[N+](=O)[O-])N(Cc2ccc(Cl)nc2)CC1.[Cl-]` [Compound 291], in series [1], the “Aphis craccivoral Mortality (%) 500 ppm” value was determined as 100%. Moreover, the “Nilaparvata lugens Mortality (%) 500 ppm” value in series [2] is 100%. Further, the “Plutella xylostella Mortality (%) 500 ppm” value in series [3] came out at 100%. The “Pseudaletia separate Walker Mortality (%) 500 ppm” value in series [4] came to 100%.

In the case of `C[N+]1=C(C(=Cc2cc(Br)c(Br)s2)[N+](=O)[O-])N(Cc2ccc(Cl)nc2)CC1.[Cl-]` [Compound 268], the “Aphis craccivoral Mortality (%) 500 ppm” value in series [1] is 100%. Moreover, in series [2], the “Nilaparvata lugens Mortality (%) 500 ppm” value is 100%. Moreover, the “Plutella xylostella Mortality (%) 500 ppm” value in series [3] is listed as 100%. The “Pseudaletia separate Walker Mortality (%) 500 ppm” value in series [4] is on record as 100%.

Regarding `O=[N+]([O-])C(=Cc1cc(Br)c(Br)s1)C1=NCCN1Cc1ccc(Cl)nc1` [Compound 25], in series [1], the “Aphis craccivoral Mortality (%) 500 ppm” value amounted to 100%. The “Nilaparvata lugens Mortality (%) 500 ppm” value in series [2] is given as 100%. In series [3], the “Plutella xylostella Mortality (%) 500 ppm” value amounted to 100%. In addition, the “Pseudaletia separate Walker Mortality (%) 500 ppm” value in series [4] came out at 100%.

On to `C[N+]1=C(C(=Cc2cccs2)[N+](=O)[O-])N(Cc2cnc(Cl)s2)CC1.[Cl-]` [Compound 280], for which the “Aphis craccivoral Mortality (%) 500 ppm” value in series [1] stood at 100%. The “Nilaparvata lugens Mortality (%) 500 ppm” value in series [2] is recorded as 100%. In addition, the “Plutella xylostella Mortality (%) 500 ppm” value in series [3] worked out at 100%. For the same molecule, the “Pseudaletia separate Walker Mortality (%) 500 ppm” value in series [4] is on record as 100%.

For `CC(c1ccc(Cl)nc1)N1CCN=C1C(=Cc1ccc(Cl)s1)[N+](=O)[O-]` (racemic) [Compound 130], the “Aphis craccivoral Mortality (%) 500 ppm” value in series [1] worked out at 100%. For the same molecule, the “Nilaparvata lugens Mortality (%) 500 ppm” value in series [2] turned out to be 100%. Also, the “Plutella xylostella Mortality (%) 500 ppm” value in series [3] was found to be 76%. In series [4], the “Pseudaletia separate Walker Mortality (%) 500 ppm” value is reported as 100%.

`CC[N+]1=C(C(=Cc2ccc(Br)o2)[N+](=O)[O-])N(Cc2ccc(Cl)nc2)CC1.[Cl-]` [Compound 289]: in series [1], the “Aphis craccivoral Mortality (%) 500 ppm” value is on record as 100%. Further, in series [2], the “Nilaparvata lugens Mortality (%) 500 ppm” value turned out to be 100%. Moreover, the “Plutella xylostella Mortality (%) 500 ppm” value in series [3] amounted to 100%. For the same molecule, the “Pseudaletia separate Walker Mortality (%) 500 ppm” value in series [4] stood at 100%.

Take `CCC(c1ccc(Cl)nc1)N1CCN=C1C(=Cc1ccc[nH]1)[N+](=O)[O-]` (racemic) [Compound 132]: in series [1], the “Aphis craccivoral Mortality (%) 500 ppm” value was 73%. Moreover, the “Nilaparvata lugens Mortality (%) 500 ppm” value in series [2] is reported as 84%. Also, in series [3], the “Plutella xylostella Mortality (%) 500 ppm” value is given as 99%. The “Pseudaletia separate Walker Mortality (%) 500 ppm” value in series [4] was 89%.

As to `O=[N+]([O-])C(=Cc1cc(Cl)co1)C1=NCCN1Cc1ccccc1` [Compound 106], in series [1], the “Aphis craccivoral Mortality (%) 500 ppm” value is reported as 91%. Further, the “Nilaparvata lugens Mortality (%) 500 ppm” value in series [2] stood at 87%. In addition, in series [3], the “Plutella xylostella Mortality (%) 500 ppm” value was 75%. Also, the “Pseudaletia separate Walker Mortality (%) 500 ppm” value in series [4] is listed as 59%.

For the molecule `CC[N+]1=C(C(=Cc2ccco2)[N+](=O)[O-])N(Cc2ccc(Cl)nc2)CC1.[Cl-]` [Compound 285], the “Aphis craccivoral Mortality (%) 500 ppm” value in series [1] worked out at 100%. Besides, the “Nilaparvata lugens Mortality (%) 500 ppm” value in series [2] was 100%. Moreover, in series [3], the “Plutella xylostella Mortality (%) 500 ppm” value is on record as 100%. For the same molecule, the “Pseudaletia separate Walker Mortality (%) 500 ppm” value in series [4] is 100%.

On to `CC(=C(C1=NCCN1Cc1ccc(Cl)nc1)[N+](=O)[O-])c1ccoc1` [Compound 112], for which the “Aphis craccivoral Mortality (%) 500 ppm” value in series [1] is 56%. Also, the “Nilaparvata lugens Mortality (%) 500 ppm” value in series [2] came out at 76%. For the same molecule, the “Plutella xylostella Mortality (%) 500 ppm” value in series [3] is 53%. For the same molecule, the “Pseudaletia separate Walker Mortality (%) 500 ppm” value in series [4] is on record as 68%.

In the case of `CCN(Cc1ccc(Cl)nc1)C(=N\C)/C(=C\c1ccc[nH]1)[N+](=O)[O-]` [Compound 160, N-((6-chloropyridin-3-yl)methyl)-N-ethyl-N′-methyl-2-nitro-3-(1H-pyrrol-2-yl) acrylamidine], the mortality at 500 ppm in series [1] (Aphis, 500 ppm, immersion 5 seconds, counted after 24 hours, read-out: Aphis craccivoral Mortality (%) 500 ppm) was found to be 56%; in series [2] (Nilaparvata lugens, 500 ppm, spraying, counted after 24 hours, read-out: Nilaparvata lugens Mortality (%) 500 ppm), 54%; in series [3] (Plutella xylostella, 500 ppm, dipped cabbage leaves fed, counted after 24 hours, read-out: Plutella xylostella Mortality (%) 500 ppm), 100%; in series [4] (Zea mays, foliar, 500 ppm, dipped maize leaves fed, counted after 24 hours, read-out: Pseudaletia separate Walker Mortality (%) 500 ppm) it was 64%.

As for `O=[N+]([O-])C(=Cc1ccccc1)C1=NCCN1Cc1ccc(Cl)nc1` [Compound 44], in series [1], the “Aphis craccivoral Mortality (%) 500 ppm” value was 67%. In series [2], the “Nilaparvata lugens Mortality (%) 500 ppm” value came out at 92%. In addition, the “Plutella xylostella Mortality (%) 500 ppm” value in series [3] is 100%. Besides, in series [4], the “Pseudaletia separate Walker Mortality (%) 500 ppm” value was found to be 97%.

In the case of `O=[N+]([O-])C(=Cc1cnco1)C1=NCCN1Cc1ccc(Cl)nc1` [Compound 33], the “Aphis craccivoral Mortality (%) 500 ppm” value in series [1] was 100%. Further, in series [2], the “Nilaparvata lugens Mortality (%) 500 ppm” value is listed as 100%. Moreover, in series [3], the “Plutella xylostella Mortality (%) 500 ppm” value came out at 100%. Moreover, the “Pseudaletia separate Walker Mortality (%) 500 ppm” value in series [4] is recorded as 100%.

For `O=[N+]([O-])C(=Cc1ccc(Br)s1)C1=NCCCN1Cc1ccc(Cl)nc1` [Compound 65], the “Aphis craccivoral Mortality (%) 500 ppm” value in series [1] amounted to 73%. Further, in series [2], the “Nilaparvata lugens Mortality (%) 500 ppm” value was found to be 100%. The “Plutella xylostella Mortality (%) 500 ppm” value in series [3] is on record as 100%. Also, the “Pseudaletia separate Walker Mortality (%) 500 ppm” value in series [4] came to 92%.

As to `Cc1ccc(C=C(C2=NCCN2Cc2ccc(Cl)nc2)[N+](=O)[O-])cn1` [Compound 42], the “Aphis craccivoral Mortality (%) 500 ppm” value in series [1] amounted to 45%. Also, the “Nilaparvata lugens Mortality (%) 500 ppm” value in series [2] is 36%. The “Plutella xylostella Mortality (%) 500 ppm” value in series [3] was determined as 90. %. Besides, the “Pseudaletia separate Walker Mortality (%) 500 ppm” value in series [4] is reported as 87%.
